Reference: patent US11673853B2, “Small molecule AMPK activators” (University of Pittsburgh—Of the Commonwealth System of …, priority 2016, dated 2023)

Test system: mice
Test: Pseudomonas (PA103) pneumonia model
Type: in vivo
Conditions: 2 or 10 mg/kg i.p., PA103 i.t., 18 h
Description: FIG. 7. Compound 12 (2 or 10 mg/kg) was administered to mice though an i.p. injection, and mice were immediately challenged with P. aeruginosa (strain PA103, 1.5*10^4 cfu/mouse, i.t.) or without (control, CON) for an additional 18 h. Mice were then euthanized and lungs were lavaged with saline, harvested, and then homogenized. Lavage protein, cell counts, bacterial count and cytokine secretions (A-C) were measured. Lungs were homogenized before being assayed by immunoblotting. The data are representative of data from n=5-6 mice/group, *P<0.05 versus vehicle.
Compound 12 was tested in two pneumonia model using Pseudomonas or LPS endotoxin.

## OC(COc1ccc(F)cc1)CN(Cc1ccccc1)Cc1ccccc1 (centres unmarked) [Compound 12]
  lavage bacterial counts: without affecting lavage bacterial counts
  lavage cell counts: substantially decreased
  lavage protein concentration: substantially decreased
Dose dependent
  lavage proinflammatory cytokines: effectively reduces
immunoblotting
  pAMPK levels within the lung tissue: drastically increasing
